Experiment [1] addresses STE20-like serine/threonine-protein kinase (Homo sapiens, UniProt Q9H2G2). The experiment in a line: Selectivity interaction (ProQinase) EUB0000171b SLK.
Experiment [2] deals with T1, Megakaryocyte-associated tyrosine-protein kinase (Homo sapiens) (UniProt P42679).
T1 sequence (whole entry): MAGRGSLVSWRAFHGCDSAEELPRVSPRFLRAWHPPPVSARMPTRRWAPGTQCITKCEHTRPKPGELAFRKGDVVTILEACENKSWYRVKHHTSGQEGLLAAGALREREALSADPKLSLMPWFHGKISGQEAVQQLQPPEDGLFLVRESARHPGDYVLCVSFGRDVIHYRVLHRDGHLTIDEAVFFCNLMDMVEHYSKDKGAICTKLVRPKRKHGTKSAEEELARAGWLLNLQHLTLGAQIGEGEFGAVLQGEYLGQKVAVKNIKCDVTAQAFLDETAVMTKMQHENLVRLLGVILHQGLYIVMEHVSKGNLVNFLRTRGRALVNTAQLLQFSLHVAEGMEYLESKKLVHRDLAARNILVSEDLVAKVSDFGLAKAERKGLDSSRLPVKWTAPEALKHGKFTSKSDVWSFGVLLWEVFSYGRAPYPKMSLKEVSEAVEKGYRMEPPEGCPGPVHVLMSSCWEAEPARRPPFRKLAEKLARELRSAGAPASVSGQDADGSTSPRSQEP
Nature of the experiment: Selectivity interaction (KinomeScan (DiscoverX)) EUB0000092b MATK. The settings on record: at 10 µM.

Experiment [3] concerns the target Serine/threonine-protein kinase WNK4 (Homo sapiens) (UniProt Q96J92). The experiment in a line: Selectivity interaction (KinomeScan (DiscoverX)) EUB0000695a WNK4. The settings on record: at 100 nM.
In experiment [4] the target is cAMP-dependent protein kinase catalytic subunit alpha (Homo sapiens, UniProt P17612). Nature of the experiment: Selectivity interaction (KinomeScan (DiscoverX)) EUB0000666a PRKACA. The conditions noted are these: at 10 µM.
The target of experiment [5] is T2, Phosphorylase b kinase gamma catalytic chain, liver/testis isoform (Homo sapiens) (UniProt P15735).
T2 sequence (whole entry): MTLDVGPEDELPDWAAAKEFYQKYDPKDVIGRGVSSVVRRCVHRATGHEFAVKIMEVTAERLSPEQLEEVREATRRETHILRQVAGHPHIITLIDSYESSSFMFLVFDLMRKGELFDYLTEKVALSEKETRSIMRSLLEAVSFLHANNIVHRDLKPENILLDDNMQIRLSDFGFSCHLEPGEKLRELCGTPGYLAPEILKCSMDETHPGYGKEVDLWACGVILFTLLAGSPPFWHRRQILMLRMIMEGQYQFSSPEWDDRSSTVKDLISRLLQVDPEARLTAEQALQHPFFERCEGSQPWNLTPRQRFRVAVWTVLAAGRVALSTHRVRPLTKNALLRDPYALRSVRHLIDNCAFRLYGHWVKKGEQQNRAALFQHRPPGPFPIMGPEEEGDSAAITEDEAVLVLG
Nature of the experiment: Selectivity interaction (Kinase panel (Z-LYTE Assay)) EUB0001632a PHKG2. The settings on record: at 10 µM.

Experiment [6] addresses Serine/threonine-protein kinase WNK2 (Homo sapiens) (UniProt Q9Y3S1). Nature of the experiment: Selectivity interaction (LanthaScreen Eu Kinase Binding Assay) EUB0001632a WNK2. The settings on record: at 10 µM. In general terms: Time-resolved FRET reads energy transfer from a long-lived donor to a nearby acceptor.
Experiment [7] concerns the target T3, Homeodomain-interacting protein kinase 4 (Homo sapiens) (UniProt Q8NE63).
T3 sequence (whole entry): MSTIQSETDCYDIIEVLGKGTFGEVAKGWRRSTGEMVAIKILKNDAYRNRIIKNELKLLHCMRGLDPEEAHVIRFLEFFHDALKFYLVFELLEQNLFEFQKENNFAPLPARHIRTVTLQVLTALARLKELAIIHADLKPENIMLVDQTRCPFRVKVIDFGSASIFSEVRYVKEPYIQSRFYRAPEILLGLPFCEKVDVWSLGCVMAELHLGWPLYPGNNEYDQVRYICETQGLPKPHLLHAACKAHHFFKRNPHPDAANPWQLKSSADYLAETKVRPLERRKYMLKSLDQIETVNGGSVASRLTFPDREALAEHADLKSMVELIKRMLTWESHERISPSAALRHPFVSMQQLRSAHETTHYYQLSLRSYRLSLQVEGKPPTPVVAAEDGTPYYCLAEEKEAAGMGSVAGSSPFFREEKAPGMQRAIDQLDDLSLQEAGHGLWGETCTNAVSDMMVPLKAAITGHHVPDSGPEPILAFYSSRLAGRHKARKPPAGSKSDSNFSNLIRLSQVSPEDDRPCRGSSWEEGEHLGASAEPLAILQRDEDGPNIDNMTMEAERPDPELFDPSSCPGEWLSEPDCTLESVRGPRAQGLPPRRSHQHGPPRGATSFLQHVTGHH
The experiment in a line: Selectivity interaction (SelectScreen profiling (Invitrogen)) EUB0000607a HIPK4. The conditions noted are these: at 2 µM.

Experiment [8] deals with Phosphatidylinositol 3-kinase catalytic subunit type 3 (Homo sapiens, UniProt Q8NEB9). The experiment in a line: Selectivity interaction (ActivX KiNativ screen (kinase selectivity in THP-1 cell lysates)) EUB0000639a PIK3C3. Format: subcellular. The conditions noted are these: lysate, at 5 µM.
The target in experiment [9] is Tyrosine-protein kinase JAK1 (Homo sapiens, UniProt P23458). Nature of the experiment: Selectivity interaction (Kinase panel (Invitrogen)) EUB0000639a JAK1. The settings on record: at 200 nM.
Experiment [10] addresses Tyrosine-protein kinase HCK (Homo sapiens) (UniProt P08631). The experiment in a line: Selectivity interaction (ActivX KiNativ screen (kinase selectivity in THP-1 cell lysates)) EUB0000639a HCK. The format is subcellular. The settings on record: lysate, at 0.04 µM.
Experiment [11] concerns the target Tyrosine-protein kinase FRK (Homo sapiens) (UniProt P42685). The experiment in a line: Selectivity interaction (KinomeScan (DiscoverX)) EUB0000229b FRK. The settings on record: at 10 µM.
The target of experiment [12] is Mitogen-activated protein kinase 14 (Homo sapiens, UniProt Q16539). Nature of the experiment: Selectivity interaction (Kinase panel (DSF assay)) EUB0001559a MAPK14.
Experiment [13] has as its target Ribosomal protein S6 kinase alpha-4 (Homo sapiens) (UniProt O75676). The experiment in a line: Selectivity interaction (KinomeScan (DiscoverX)) EUB0000595a RPS6KA4. The conditions noted are these: at 10 µM.
Experiment [14] relates to Fibroblast growth factor receptor 3 (Homo sapiens), P22607 [G697C]. The experiment in a line: (§1) Selectivity interaction (KinomeScan (DiscoverX)) EUB0001619a FGFR3. The settings on record: at 1 µM.
For experiment [15], the target named is Fibroblast growth factor receptor 3 (Homo sapiens, UniProt P22607). The description is as §1. The conditions noted are these: at 1 µM.
Experiment [16] addresses Ribosomal protein S6 kinase beta-1 (Homo sapiens, UniProt P23443). The experiment in a line: Selectivity interaction (Kinase panel (KiNativ target engagement assay in Jurkat cells)) EUB0001635a RPS6KB1. The conditions noted are these: at 1 µM. The format is cell-based.
For experiment [17], the system named is Hepatocyte growth factor receptor (Homo sapiens), P08581 [Y1235D]. The experiment in a line: (§2) Selectivity interaction (KinomeScan (DiscoverX)) EUB0000618a MET. The conditions noted are these: at 10 µM.
For experiment [18], the target named is Hepatocyte growth factor receptor (Homo sapiens, UniProt P08581). The description is as §2. The settings on record: at 10 µM.
For experiment [19], the system named is Hepatocyte growth factor receptor (Homo sapiens), P08581 [M1250T]. Described as §2. The conditions noted are these: at 10 µM.

Ribosomal protein S6 kinase beta-1, sequence (P23443 whole entry, looked up): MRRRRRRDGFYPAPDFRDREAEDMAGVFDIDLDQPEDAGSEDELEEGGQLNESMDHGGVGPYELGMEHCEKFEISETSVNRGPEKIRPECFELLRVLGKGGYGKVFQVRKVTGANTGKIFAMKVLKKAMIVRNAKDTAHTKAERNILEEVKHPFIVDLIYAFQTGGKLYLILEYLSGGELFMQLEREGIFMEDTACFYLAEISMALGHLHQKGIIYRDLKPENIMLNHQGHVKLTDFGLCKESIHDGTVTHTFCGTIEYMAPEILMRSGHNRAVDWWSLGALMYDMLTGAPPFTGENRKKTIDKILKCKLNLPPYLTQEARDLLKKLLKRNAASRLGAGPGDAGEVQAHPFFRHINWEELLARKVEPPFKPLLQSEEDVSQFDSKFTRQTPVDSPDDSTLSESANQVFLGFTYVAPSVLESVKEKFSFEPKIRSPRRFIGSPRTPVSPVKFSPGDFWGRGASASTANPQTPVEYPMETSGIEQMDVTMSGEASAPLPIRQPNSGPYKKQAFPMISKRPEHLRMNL
STE20-like serine/threonine-protein kinase, sequence (Q9H2G2 whole entry, looked up): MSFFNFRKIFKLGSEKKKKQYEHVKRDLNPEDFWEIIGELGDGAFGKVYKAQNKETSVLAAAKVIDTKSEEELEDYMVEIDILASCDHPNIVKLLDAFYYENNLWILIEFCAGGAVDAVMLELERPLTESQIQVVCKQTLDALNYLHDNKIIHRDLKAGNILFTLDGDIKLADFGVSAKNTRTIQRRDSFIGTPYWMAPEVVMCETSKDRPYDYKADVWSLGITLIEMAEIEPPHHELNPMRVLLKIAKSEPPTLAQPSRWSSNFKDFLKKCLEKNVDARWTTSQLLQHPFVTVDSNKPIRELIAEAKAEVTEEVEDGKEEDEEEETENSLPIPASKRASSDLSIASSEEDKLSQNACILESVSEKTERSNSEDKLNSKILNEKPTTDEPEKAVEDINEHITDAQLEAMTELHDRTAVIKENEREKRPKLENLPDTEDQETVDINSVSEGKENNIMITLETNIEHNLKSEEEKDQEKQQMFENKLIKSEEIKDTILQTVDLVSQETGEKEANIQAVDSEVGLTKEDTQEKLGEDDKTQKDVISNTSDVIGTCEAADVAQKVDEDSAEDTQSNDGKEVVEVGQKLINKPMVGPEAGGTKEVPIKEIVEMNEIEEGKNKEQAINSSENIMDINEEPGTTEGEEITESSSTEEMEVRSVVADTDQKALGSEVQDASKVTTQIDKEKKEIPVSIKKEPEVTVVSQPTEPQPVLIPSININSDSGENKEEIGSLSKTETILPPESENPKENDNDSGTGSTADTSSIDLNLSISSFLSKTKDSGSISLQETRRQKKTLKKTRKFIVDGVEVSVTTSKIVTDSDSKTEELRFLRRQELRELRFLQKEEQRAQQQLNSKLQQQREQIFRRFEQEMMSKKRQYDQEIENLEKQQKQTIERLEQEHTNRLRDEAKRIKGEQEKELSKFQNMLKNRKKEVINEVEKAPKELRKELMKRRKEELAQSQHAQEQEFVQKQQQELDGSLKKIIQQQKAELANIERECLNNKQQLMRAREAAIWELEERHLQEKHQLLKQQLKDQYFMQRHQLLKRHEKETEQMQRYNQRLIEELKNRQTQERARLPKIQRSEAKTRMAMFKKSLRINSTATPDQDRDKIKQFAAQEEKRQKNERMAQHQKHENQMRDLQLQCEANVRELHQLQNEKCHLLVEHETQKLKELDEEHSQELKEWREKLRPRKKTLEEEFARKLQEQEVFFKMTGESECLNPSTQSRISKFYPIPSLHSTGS
Tyrosine-protein kinase JAK1, sequence (P23458 whole entry): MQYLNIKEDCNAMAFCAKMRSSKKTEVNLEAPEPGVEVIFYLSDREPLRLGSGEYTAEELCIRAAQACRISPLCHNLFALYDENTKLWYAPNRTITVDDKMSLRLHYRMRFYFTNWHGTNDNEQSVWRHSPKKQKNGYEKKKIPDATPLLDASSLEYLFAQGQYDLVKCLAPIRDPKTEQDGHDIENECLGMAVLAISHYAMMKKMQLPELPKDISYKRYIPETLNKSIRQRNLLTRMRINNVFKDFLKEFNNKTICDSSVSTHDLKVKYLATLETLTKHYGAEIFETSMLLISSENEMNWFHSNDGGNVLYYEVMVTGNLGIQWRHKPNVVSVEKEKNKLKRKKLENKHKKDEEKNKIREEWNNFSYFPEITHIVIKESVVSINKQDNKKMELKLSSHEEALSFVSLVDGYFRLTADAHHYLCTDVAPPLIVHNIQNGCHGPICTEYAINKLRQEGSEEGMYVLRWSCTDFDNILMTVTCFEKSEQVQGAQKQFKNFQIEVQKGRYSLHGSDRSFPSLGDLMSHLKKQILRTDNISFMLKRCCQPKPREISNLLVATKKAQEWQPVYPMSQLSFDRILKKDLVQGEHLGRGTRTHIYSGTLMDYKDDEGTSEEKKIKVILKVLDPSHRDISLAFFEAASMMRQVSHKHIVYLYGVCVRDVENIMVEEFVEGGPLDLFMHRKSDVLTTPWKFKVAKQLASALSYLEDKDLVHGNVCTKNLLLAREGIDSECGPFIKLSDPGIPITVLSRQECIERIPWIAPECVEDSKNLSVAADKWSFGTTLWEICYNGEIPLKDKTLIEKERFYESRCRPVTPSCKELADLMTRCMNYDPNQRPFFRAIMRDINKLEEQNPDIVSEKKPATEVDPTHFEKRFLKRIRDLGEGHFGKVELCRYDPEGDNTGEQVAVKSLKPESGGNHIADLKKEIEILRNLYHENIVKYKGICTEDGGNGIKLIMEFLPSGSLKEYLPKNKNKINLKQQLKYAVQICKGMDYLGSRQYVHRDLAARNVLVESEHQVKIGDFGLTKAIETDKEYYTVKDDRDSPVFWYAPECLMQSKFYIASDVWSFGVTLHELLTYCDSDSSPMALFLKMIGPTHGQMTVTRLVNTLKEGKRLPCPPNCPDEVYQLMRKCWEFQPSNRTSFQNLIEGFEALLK
Phosphatidylinositol 3-kinase catalytic subunit type 3, sequence (Q8NEB9 whole entry): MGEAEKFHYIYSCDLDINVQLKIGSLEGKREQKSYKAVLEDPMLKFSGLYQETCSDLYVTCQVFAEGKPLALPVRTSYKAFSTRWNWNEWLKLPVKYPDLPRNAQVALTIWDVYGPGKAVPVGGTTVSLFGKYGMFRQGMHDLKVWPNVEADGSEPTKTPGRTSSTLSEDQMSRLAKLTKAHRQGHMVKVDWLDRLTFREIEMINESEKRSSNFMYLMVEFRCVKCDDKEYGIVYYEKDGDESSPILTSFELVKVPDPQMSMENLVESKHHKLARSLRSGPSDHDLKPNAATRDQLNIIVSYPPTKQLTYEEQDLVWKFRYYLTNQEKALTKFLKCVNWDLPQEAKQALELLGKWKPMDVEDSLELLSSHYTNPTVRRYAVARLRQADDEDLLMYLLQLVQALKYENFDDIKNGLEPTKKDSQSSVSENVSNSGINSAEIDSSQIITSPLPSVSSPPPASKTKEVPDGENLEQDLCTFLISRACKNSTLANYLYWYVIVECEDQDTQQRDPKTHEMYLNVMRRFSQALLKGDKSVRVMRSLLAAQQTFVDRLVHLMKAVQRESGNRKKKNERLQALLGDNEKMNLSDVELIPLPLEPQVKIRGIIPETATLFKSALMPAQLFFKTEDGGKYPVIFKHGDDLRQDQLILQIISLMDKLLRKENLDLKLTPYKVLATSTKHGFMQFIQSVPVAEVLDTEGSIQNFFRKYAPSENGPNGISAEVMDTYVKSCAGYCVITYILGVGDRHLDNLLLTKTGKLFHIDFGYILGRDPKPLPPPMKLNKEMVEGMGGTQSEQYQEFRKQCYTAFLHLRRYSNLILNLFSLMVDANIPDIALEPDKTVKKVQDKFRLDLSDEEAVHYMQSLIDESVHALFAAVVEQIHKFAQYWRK
Mitogen-activated protein kinase 14, sequence (Q16539 whole entry): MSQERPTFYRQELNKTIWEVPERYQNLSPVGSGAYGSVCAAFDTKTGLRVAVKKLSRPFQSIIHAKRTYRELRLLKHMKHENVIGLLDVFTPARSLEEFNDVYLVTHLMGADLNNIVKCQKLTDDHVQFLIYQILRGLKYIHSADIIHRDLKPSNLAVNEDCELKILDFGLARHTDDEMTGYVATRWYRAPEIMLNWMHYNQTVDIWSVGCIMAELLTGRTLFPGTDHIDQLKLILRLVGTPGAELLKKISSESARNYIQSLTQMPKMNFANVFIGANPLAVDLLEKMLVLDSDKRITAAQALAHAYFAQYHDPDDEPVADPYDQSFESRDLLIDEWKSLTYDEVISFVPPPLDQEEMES
Tyrosine-protein kinase HCK (Homo sapiens), sequence (P08631 2-526 limits assumed): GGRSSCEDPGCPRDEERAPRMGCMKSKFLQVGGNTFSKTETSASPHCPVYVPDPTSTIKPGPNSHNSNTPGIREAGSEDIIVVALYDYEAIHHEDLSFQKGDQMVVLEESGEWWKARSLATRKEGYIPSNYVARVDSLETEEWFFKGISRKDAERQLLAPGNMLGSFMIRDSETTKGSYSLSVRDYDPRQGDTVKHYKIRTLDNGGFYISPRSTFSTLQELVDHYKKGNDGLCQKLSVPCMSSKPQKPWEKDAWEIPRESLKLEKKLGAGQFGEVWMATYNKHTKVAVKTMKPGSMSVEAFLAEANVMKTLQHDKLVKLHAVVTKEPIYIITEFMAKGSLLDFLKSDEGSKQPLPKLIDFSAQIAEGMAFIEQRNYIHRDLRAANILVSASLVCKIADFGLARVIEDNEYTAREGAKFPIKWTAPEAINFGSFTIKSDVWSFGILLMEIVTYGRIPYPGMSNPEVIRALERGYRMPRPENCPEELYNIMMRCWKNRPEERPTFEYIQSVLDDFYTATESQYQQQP

Consider `C=CC(=O)Nc1cccc(C(=O)Nc2ccc(Nc3cc(-c4[nH]c(SC)nc4C)ccn3)cc2)c1`, for which the % of control is 102% in experiment [1] (at 1 µM) and 76% in experiment [1] (at 5 µM).

In experiment [2], `CCC(=O)N1CCN(c2ccc(-n3c(=O)ccc4cnc5ccc(-c6cnc7ccccc7c6)cc5c43)cc2C(F)(F)F)CC1` had a % of control of 97%.

`Cc1cc(F)c(C(=O)Nc2cccc(-c3nncn3C(C)C)n2)cc1-n1cnc(C2CC2)c1`: in [3], the % of control is 100%.

As for `O=C(NOC[C@H](O)CO)c1ccc(F)c(F)c1Nc1ccc(I)cc1F`, the % of control in experiment [4] turned out to be 72%.

On to `Cn1cc(-n2cnc3c(NCc4nc5cc(Cl)c(Cl)cc5[nH]4)nc(N4CCOCC4)nc32)cn1`, for which the % of control in [5] came out at 4.25%. Moreover, the % of inhibition in [6] was -13.6%.

As for `CNC(=O)Nc1ccc(-c2nc(N3CC4CCC(C3)O4)c3cnn(C4CCC5(CC4)OCCO5)c3n2)cc1`, the % of inhibition in experiment [7] came out at 7%.

As to `CC[C@@H]1[C@H](F)C(=O)N[C@@H]1COc1nccc2cc(C(N)=O)c(OC)cc12` [ZIMLOVISERTIB], the % of inhibition is 30.7% in experiment [8], -0.407% in [9] and -8.7% in experiment [10].

`COc1cc(N(C)c2ccnc3ccc(C(F)(F)F)cc23)cc(OC)c1OC` returned a % binding in [11] of 95%.

The compound `CN(C(=O)c1cnn2cccnc12)c1cc2c(cc1N1CCOCC1)C(=O)N(C[C@@H](F)C(C)(C)O)C2` came in with a dTM in [12] of -0.3 K.

Take `COCC(=O)NC/C=C/c1ccc2ncnc(Nc3ccc(Oc4ccc(C)nc4)c(C)c3)c2c1` [CP-724714]: the % of control in experiment [13] is 97%.

Consider `N#Cc1cccc(-c2c[nH]c3ncnc(N4CCOCC4)c23)c1`, for which the % of control in experiment [14] and in experiment [15] was 100% each time.

For the compound `C=CC(=O)Nc1ccc(C(=O)Nc2[nH]nc3c2CN(C(=O)N[C@H](CN(C)C)c2ccccc2)C3(C)C)cc1`, the % of engagement was 7.5% in experiment [16] (Selectivity number of off-targets 0.0, Selectivity number of targets 233.0, Source Knowledge https://www.sciencedirect.com/science/article/pii/S2451945619300674?via%3Dihub) and -9.4% in [16].

`O[C@H]1CC[C@H](Nc2ncc3nc(Nc4c(F)cc(F)cc4F)n([C@H]4CCOC4)c3n2)CC1`: the % of control in [17], in experiment [18] and in experiment [19] was 100% throughout.

The record behind these values is ChEMBL document CHEMBL5465560, “Selectivity Literature for EUbOPEN Chemogenomic Library” (2024).
